Results from patent US12533390B2, “Methods and compositions for treatment of Endothelin B receptor expressing tumors” (ENB Therapeutics, Inc., priority 2015, dated 2026).
“Also recorded” adds a separate entry of the source.

Legend:
[1] = tested on: melanoma cell lines overexpressing ETBR; experiment: Mouse melanoma brain metastasis model, xenografts of ETBR-overexpressing melanoma cell lines; assay type: in vivo, mice; details: A192621 60 mg/kg/day
Procedure: FIGS. 5A, 5B, 5C, 5D, and 5E. ETBR antagonist inhibits melanoma brain metastasis in mice. […] In this study, lentiviral vectors were used to overexpress ETBR in melanoma cell lines, which were in turn used to implant xenografts in mice.
A192621 inhibits melanoma brain metastasis in mice (FIGS. 5A, 5B, 5C, 5D, and 5E). […] A192621 was administered at a dose of 60 mg/kg/day using a mouse melanoma model. […] In this study, lentiviral vectors were used to overexpress ETBR in melanoma cell lines, which were in turn used to implant xenografts in mice. […]

[2] = tested on: SKMEL28 human melanoma cells; experiment: SKMEL28 human melanoma xenograft in mice, tumor weight and lung metastases; assay type: in vivo
Procedure: BQ788 inhibits melanoma growth and metastasis (FIGS. 4A and 4B). […] Mice were implanted with 1×10^6 SKMEL28 human melanoma cells. Tumors were established for 10 days until palpable then 120 ng ([…]) BQ788 dissolved in DMSO was injected IP 3× per week x 6 weeks. Mice were then sacrificed and lungs harvested and tumors weighed. A 75% reduction in tumor weight was observed.

[3] = Body weight of athymic nude mice under intranasal BQ788 over 42 days; assay type: in vivo
Procedure: FIG. 9. ETAR antagonist and Niacinamide mitigate weight loss from BQ788. Six week old athymic nude mice were administered the ETBR antagonist BQ788 intranasally in 20% DMSO at the indicated ascending doses over a period of 42 days. One group was additionally administered the ETAR antagonist Macitentan orally at a dose of 5 mg/kg daily. The drinking water of these mice was supplemented with the B vitamin niacinamide at a concentration of 0.3 mg/mL. […] Animals thus treated were able to maintain body weight throughout the study. Co-administration of ETAR antagonists and niacinamide with ETBR antagonists mitigated the adverse effects of ETBR antagonists when administered for therapeutic purposes.
ETAR antagonist and Niacinamide mitigate weight loss from BQ788 ([…]). Six week old athymic nude mice (n=3 per group) were administered the ETBR antagonist BQ788 intranasally in 20% DMSO at the indicated ascending doses over a period of 42 days. One group was additionally administered the ETAR antagonist Macitentan orally at a dose of 5 mg/kg daily. The drinking water of these mice was supplemented with the B vitamin niacinamide at a concentration of 0.3 mg/mL. […] Animals thus treated were able to maintain body weight throughout the study. […]

[4] = target: T1, ETBR (Homo sapiens, UniProt P24530); details: ETBR antagonist, no method given, cited from earlier work
T1 sequence (P24530 27-442): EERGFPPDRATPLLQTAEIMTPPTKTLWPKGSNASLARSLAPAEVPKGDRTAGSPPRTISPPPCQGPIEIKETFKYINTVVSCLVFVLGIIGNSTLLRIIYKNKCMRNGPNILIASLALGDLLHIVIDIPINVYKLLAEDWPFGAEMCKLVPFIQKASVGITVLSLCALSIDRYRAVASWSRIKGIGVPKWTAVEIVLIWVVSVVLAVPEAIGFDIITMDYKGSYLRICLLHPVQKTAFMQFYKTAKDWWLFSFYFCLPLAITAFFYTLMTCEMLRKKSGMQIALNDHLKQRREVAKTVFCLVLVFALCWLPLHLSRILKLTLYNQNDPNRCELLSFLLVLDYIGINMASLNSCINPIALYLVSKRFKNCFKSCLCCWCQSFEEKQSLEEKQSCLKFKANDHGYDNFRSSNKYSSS

[5] = tested on: A375 human melanoma cells; experiment: Subcutaneous A375 human melanoma xenograft in Nu/J nude mice; assay type: in vivo; details: Dabrafenib 100 mg/Kg PO daily, alone or with BQ788 600 ng IP TIW; A375 tumors 150-200 mm3 at start
Procedure: FIG. 7. BQ788 synergizes with Dabrafenib in vivo. A375 human melanoma cells were implanted subcutaneously into the rear flank of Nu/J nude mice and allowed to grow to 150 mm3-200 mm3 prior to randomization and initiation of treatment. The mice received the following treatments: (1) vehicle (n=8), (2) Dabrafenib 100 mg/Kg PO daily (n=5), and (3) Dabrafenib+BQ788 600 ng IP TIW (n=5).
BQ788 synergizes with a bRAF inhibitor in vivo (FIG. 7). A375 human melanoma cells (3×10^6) were implanted subcutaneously into the rear flank of Nu/J nude mice and allowed to grow to 150 mm3-200 mm3 prior to randomization and initiation of treatment. The treatment groups were as follows: (1) vehicle (n=8), Dabrafenib 100 mg/Kg PO daily (n=5), (2) Dabrafenib+BQ788 600 ng IP 3 x per week (n=5).

With `CCCOc1ccc([C@H]2[C@H](C(=O)O)[C@@H](c3ccc4c(c3)OCO4)CN2CC(=O)Nc2c(CC)cccc2CC)cc1` [A192621, (2R,3R,4S)-4-(1,3-benzodioxol-5-yl)-1-[2-(2,6-diethylanilino)-2-oxoethyl]-2-(4-propoxyphenyl) pyrrolidine-3-carboxylic acid] the CNS melanoma tumors [1] was “shrinks CNS melanoma tumors”, the brain melanoma metastases [1] was “shrinks brain melanoma metastases” and the survival [1] was “increases survival”.

In the case of `CCCC[C@@H](NC(=O)[C@@H](Cc1cn(C(=O)OC)c2ccccc12)NC(=O)[C@H](CC(C)(C)C)NC(=O)N1[C@H](C)CCC[C@@H]1C)C(=O)[O][Na+]` [BQ788], the “reduction in tumor weight” value ([2]; 120 ng (~60 μg/kg) BQ788 in DMSO IP 3x per week x 6 weeks, SKMEL28 tumors in mice) is reported as 75%, the “clearance of lung metastases” value ([2]; 120 ng BQ788 IP 3x per week x 6 weeks, lung specimens vs control mice) is reported as greater than 95% and the “average weight loss relative to baseline body weight” value ([3]; BQ788 alone intranasally in 20% DMSO, ascending doses, end of 42 day study) is reported as 5%. For the same molecule, the “effect on body weight / thriving” value ([3]; BQ788 intranasally, ascending doses over 42 days, with or without Macitentan 5 mg/kg orally daily and niacinamide 0.3 mg/mL in drinking water) was “failed to thrive”, the IC50 ([4]; for BQ788 printed as inhibitor of ETBR-related melanoma cell growth) was 1.2 nM and the Ki [4] was 17.8 nM.

With `CC(C)(C)c1nc(-c2cccc(NS(=O)(=O)c3c(F)cccc3F)c2F)c(-c2ccnc(N)n2)s1` [Dabrafenib] the tumor growth [5] was “retarded the growth of tumors; also recorded: retarded tumor growth”.
